ChEMBL document CHEMBL1201862, “PubChem BioAssay data set” (2004)
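Test compounds were applied to cells in 96-well plates for 48 hours at 5 doses. GI50 = concentration required for 50% inhibition of growth.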 Active and inactive are the calls of the source. Cut-off read from the data, not from the text of the source: active = GI50 up to about 1.1 µM and inactive = higher.

Legend:
Assay in all cases: growth of human tumour cells (NCI), 48 h
786-0 = tested on: 786-0
A549 = tested on: A549
ACHN = tested on: ACHN
BT-549 = tested on: BT-549
CAKI-1 = tested on: CAKI-1
CCRF-CEM = tested on: CCRF-CEM
COLO 205 = tested on: COLO 205
DU-145 = tested on: DU-145
EKVX = tested on: EKVX
HCC 2998 = tested on: HCC 2998
HCT-116 = tested on: HCT-116
HCT-15 = tested on: HCT-15
HL-60 = tested on: HL-60
HOP-62 = tested on: HOP-62
HOP-92 = tested on: HOP-92
HT-29 = tested on: HT-29
Hs-578T = tested on: Hs-578T
IGROV-1 = tested on: IGROV-1
K562 = tested on: K562
KM12 = tested on: KM12
LOX IMVI = tested on: LOX IMVI
M14 = tested on: M14
MCF7 = tested on: MCF7
MDA-MB-231 = tested on: MDA-MB-231
MDA-MB-435 = tested on: MDA-MB-435
MDA-N = tested on: MDA-N
MOLT-4 = tested on: MOLT-4
Malme-3M = tested on: Malme-3M
NCI-H226 = tested on: NCI-H226
NCI-H23 = tested on: NCI-H23
NCI-H460 = tested on: NCI-H460
NCI-H522 = tested on: NCI-H522
NCI/ADR-RES = tested on: NCI/ADR-RES
OVCAR-3 = tested on: OVCAR-3
OVCAR-4 = tested on: OVCAR-4
OVCAR-5 = tested on: OVCAR-5
OVCAR-8 = tested on: OVCAR-8
PC-3 = tested on: PC-3
RPMI-8226 = tested on: RPMI-8226
RXF 393 = tested on: RXF 393
SF-268 = tested on: SF-268
SF-295 = tested on: SF-295
SF-539 = tested on: SF-539
SK-MEL-28 = tested on: SK-MEL-28
SK-MEL-2 = tested on: SK-MEL-2
SK-MEL-5 = tested on: SK-MEL-5
SK-OV-3 = tested on: SK-OV-3
SN12C = tested on: SN12C
SNB-19 = tested on: SNB-19
SNB-75 = tested on: SNB-75
SR = tested on: SR
SW-620 = tested on: SW-620
T47D = tested on: T47D
TK-10 = tested on: TK-10
U-251 = tested on: U-251
UACC-257 = tested on: UACC-257
UACC-62 = tested on: UACC-62
UO-31 = tested on: UO-31
A498 = tested on: A498

COC/C=C\[C@@]1(O)CCCC[C@@H]1CC(OC)OC
GI50 (786-0): 30 µM (inactive) | GI50 (A549): 68.7 µM (inactive) | GI50 (ACHN): 10.1 µM (inactive) | GI50 (BT-549): 64 µM (inactive) | GI50 (CAKI-1): > 100 µM (inactive) | GI50 (CCRF-CEM): 19.2 µM (inactive) | GI50 (COLO 205): > 95.5 µM (inactive) | GI50 (DU-145): 38.5 µM (inactive) | GI50 (EKVX): > 100 µM (inactive) | GI50 (HCC 2998): > 100 µM (inactive) | GI50 (HCT-116): 22.7 µM (inactive) | GI50 (HCT-15): 27.4 µM | GI50 (HL-60): 6.98 µM (inactive) | GI50 (HOP-62): 36.2 µM (inactive) | GI50 (HOP-92): > 100 µM (inactive) | GI50 (HT-29): > 59.6 µM (inactive) | GI50 (Hs-578T): 37.2 µM (inactive) | GI50 (IGROV-1): 32.5 µM (inactive) | GI50 (K562): 11.9 µM (inactive) | GI50 (KM12): 31 µM (inactive) | GI50 (LOX IMVI): 7.03 µM (inactive) | GI50 (M14): 46.7 µM (inactive) | GI50 (MCF7): 2.75 µM (inactive) | GI50 (MDA-MB-231): > 100 µM (inactive) | GI50 (MDA-MB-435): 28.3 µM (inactive) | GI50 (MDA-N): 33.7 µM (inactive) | GI50 (MOLT-4): 9.46 µM (inactive) | GI50 (Malme-3M): 77.4 µM (inactive) | GI50 (NCI-H226): > 59.2 µM (inactive) | GI50 (NCI-H23): 39.6 µM (inactive) | GI50 (NCI-H460): 33.3 µM (inactive) | GI50 (NCI-H522): 17.5 µM (inactive) | GI50 (NCI/ADR-RES): 38.2 µM (inactive) | GI50 (OVCAR-3): 54.5 µM (inactive) | GI50 (OVCAR-4): 31.8 µM (inactive) | GI50 (OVCAR-5): > 100 µM (inactive) | GI50 (OVCAR-8): 29.9 µM (inactive) | GI50 (PC-3): 49.5 µM (inactive) | GI50 (RPMI-8226): 22.8 µM (inactive) | GI50 (RXF 393): > 54.3 µM (inactive) | GI50 (SF-268): 30.2 µM (inactive) | GI50 (SF-295): 43.4 µM (inactive) | GI50 (SF-539): 48.5 µM (inactive) | GI50 (SK-MEL-28): 37.4 µM (inactive) | GI50 (SK-MEL-2): > 100 µM (inactive) | GI50 (SK-MEL-5): > 94.2 µM (inactive) | GI50 (SK-OV-3): > 100 µM (inactive) | GI50 (SN12C): 17.5 µM (inactive) | GI50 (SNB-19): 43.6 µM (inactive) | GI50 (SNB-75): 60 µM (inactive) | GI50 (SR): 37.3 µM (inactive) | GI50 (SW-620): 32.5 µM (inactive) | GI50 (T47D): 34.1 µM (inactive) | GI50 (TK-10): > 100 µM (inactive) | GI50 (U-251): 31.8 µM (inactive) | GI50 (UACC-257): > 100 µM (inactive) | GI50 (UACC-62): 11.7 µM (inactive) | GI50 (UO-31): 32.1 µM (inactive)

O=c1c2ccccc2[nH]c(=S)n1-c1ccc(/N=N/c2cccc3c(O)cccc23)cc1
GI50 (786-0): > 100 µM (inactive) | GI50 (A549): > 100 µM (inactive) | GI50 (ACHN): 88.3 µM (inactive) | GI50 (BT-549): > 100 µM (inactive) | GI50 (CAKI-1): > 100 µM (inactive) | GI50 (CCRF-CEM): > 100 µM (inactive) | GI50 (COLO 205): 32 µM (inactive) | GI50 (DU-145): > 100 µM (inactive) | GI50 (EKVX): > 100 µM (inactive) | GI50 (HCC 2998): > 100 µM (inactive) | GI50 (HCT-116): > 100 µM (inactive) | GI50 (HCT-15): 38.5 µM | GI50 (HL-60): 54.8 µM (inactive) | GI50 (HOP-62): > 100 µM (inactive) | GI50 (HOP-92): > 100 µM (inactive) | GI50 (HT-29): > 100 µM (inactive) | GI50 (Hs-578T): > 100 µM (inactive) | GI50 (IGROV-1): 55.3 µM (inactive) | GI50 (K562): 36.2 µM (inactive) | GI50 (KM12): > 100 µM (inactive) | GI50 (LOX IMVI): 39 µM (inactive) | GI50 (M14): 50.8 µM (inactive) | GI50 (MCF7): 13.5 µM (inactive) | GI50 (MDA-MB-231): 53.3 µM (inactive) | GI50 (MDA-MB-435): 23 µM (inactive) | GI50 (MDA-N): 34.4 µM (inactive) | GI50 (MOLT-4): 45.3 µM (inactive) | GI50 (Malme-3M): 88.9 µM (inactive) | GI50 (NCI-H226): > 100 µM (inactive) | GI50 (NCI-H23): > 100 µM (inactive) | GI50 (NCI-H460): > 100 µM (inactive) | GI50 (NCI-H522): > 100 µM (inactive) | GI50 (NCI/ADR-RES): > 100 µM (inactive) | GI50 (OVCAR-3): 62.2 µM (inactive) | GI50 (OVCAR-4): > 100 µM (inactive) | GI50 (OVCAR-5): 76.7 µM (inactive) | GI50 (OVCAR-8): > 100 µM (inactive) | GI50 (PC-3): 67.6 µM (inactive) | GI50 (RPMI-8226): 65.3 µM (inactive) | GI50 (RXF 393): > 100 µM (inactive) | GI50 (SF-268): > 100 µM (inactive) | GI50 (SF-295): > 100 µM (inactive) | GI50 (SF-539): > 100 µM (inactive) | GI50 (SK-MEL-28): > 100 µM (inactive) | GI50 (SK-MEL-2): > 100 µM (inactive) | GI50 (SK-MEL-5): 24.9 µM (inactive) | GI50 (SK-OV-3): > 100 µM (inactive) | GI50 (SN12C): > 100 µM (inactive) | GI50 (SNB-19): > 100 µM (inactive) | GI50 (SNB-75): > 100 µM (inactive) | GI50 (SR): 74.5 µM (inactive) | GI50 (SW-620): > 100 µM (inactive) | GI50 (T47D): > 100 µM (inactive) | GI50 (TK-10): > 100 µM (inactive) | GI50 (U-251): 87.5 µM (inactive) | GI50 (UACC-257): 50.9 µM (inactive) | GI50 (UACC-62): 24.4 µM (inactive) | GI50 (UO-31): > 100 µM (inactive)

COc1cccc(-c2nc(O)c3ccccc3n2)c1OC
GI50 (786-0): > 100 µM (inactive) | GI50 (A498): > 100 µM (inactive) | GI50 (A549): > 100 µM (inactive) | GI50 (ACHN): > 100 µM (inactive) | GI50 (BT-549): > 100 µM (inactive) | GI50 (CAKI-1): > 100 µM (inactive) | GI50 (CCRF-CEM): > 100 µM (inactive) | GI50 (COLO 205): > 100 µM (inactive) | GI50 (DU-145): > 100 µM (inactive) | GI50 (EKVX): > 100 µM (inactive) | GI50 (HCC 2998): > 100 µM (inactive) | GI50 (HCT-116): > 100 µM (inactive) | GI50 (HCT-15): > 100 µM | GI50 (HOP-62): > 100 µM (inactive) | GI50 (HT-29): > 100 µM (inactive) | GI50 (Hs-578T): > 100 µM (inactive) | GI50 (IGROV-1): > 100 µM (inactive) | GI50 (KM12): > 100 µM (inactive) | GI50 (M14): > 100 µM (inactive) | GI50 (MCF7): > 100 µM (inactive) | GI50 (MDA-MB-231): 74.3 µM (inactive) | GI50 (MDA-MB-435): > 100 µM (inactive) | GI50 (MDA-N): > 100 µM (inactive) | GI50 (MOLT-4): > 100 µM (inactive) | GI50 (Malme-3M): > 100 µM (inactive) | GI50 (NCI-H226): > 100 µM (inactive) | GI50 (NCI-H23): > 100 µM (inactive) | GI50 (NCI-H460): > 100 µM (inactive) | GI50 (NCI/ADR-RES): > 100 µM (inactive) | GI50 (OVCAR-3): > 100 µM (inactive) | GI50 (OVCAR-4): > 100 µM (inactive) | GI50 (OVCAR-5): > 100 µM (inactive) | GI50 (OVCAR-8): > 100 µM (inactive) | GI50 (PC-3): > 100 µM (inactive) | GI50 (RPMI-8226): 2.99 µM (inactive) | GI50 (RXF 393): > 100 µM (inactive) | GI50 (SF-268): > 100 µM (inactive) | GI50 (SF-295): > 100 µM (inactive) | GI50 (SK-MEL-2): > 100 µM (inactive) | GI50 (SK-MEL-5): > 100 µM (inactive) | GI50 (SK-OV-3): > 100 µM (inactive) | GI50 (SN12C): > 100 µM (inactive) | GI50 (SNB-19): > 100 µM (inactive) | GI50 (SNB-75): 46.1 µM (inactive) | GI50 (SR): > 100 µM (inactive) | GI50 (SW-620): > 100 µM (inactive) | GI50 (T47D): > 100 µM (inactive) | GI50 (U-251): > 100 µM (inactive) | GI50 (UACC-257): > 100 µM (inactive) | GI50 (UACC-62): 51.8 µM (inactive) | GI50 (UO-31): > 100 µM (inactive)
